Reference: publication PMC12334443, “Biochemical Characterization of a Novel, Glucose-Tolerant β-Glucosidase from Jiangella ureilytica KC603, and Determination of Resveratrol Production Capacity from Polydatin” (Applied Biochemistry and Biotechnology, 2025)

Columns and labels:
Assay type in all cases: biochemical
JurBglKC603 [1] = target: T1, JurBglKC603 (Jiangella ureilytica, UniProt A0A4R4RWQ6, T2A); experiment: pNP release at […] nm, Lineweaver-Burk; conditions: 50 mM sodium citrate pH 6, 35 °C; substrate 0.1-7 mM; read-out: Kinetic parameters / Km
T1 construct: gene E1212_03180; catalytic Glu165 and Glu356
T1 sequence (A0A4R4RWQ6 1-457 T2A): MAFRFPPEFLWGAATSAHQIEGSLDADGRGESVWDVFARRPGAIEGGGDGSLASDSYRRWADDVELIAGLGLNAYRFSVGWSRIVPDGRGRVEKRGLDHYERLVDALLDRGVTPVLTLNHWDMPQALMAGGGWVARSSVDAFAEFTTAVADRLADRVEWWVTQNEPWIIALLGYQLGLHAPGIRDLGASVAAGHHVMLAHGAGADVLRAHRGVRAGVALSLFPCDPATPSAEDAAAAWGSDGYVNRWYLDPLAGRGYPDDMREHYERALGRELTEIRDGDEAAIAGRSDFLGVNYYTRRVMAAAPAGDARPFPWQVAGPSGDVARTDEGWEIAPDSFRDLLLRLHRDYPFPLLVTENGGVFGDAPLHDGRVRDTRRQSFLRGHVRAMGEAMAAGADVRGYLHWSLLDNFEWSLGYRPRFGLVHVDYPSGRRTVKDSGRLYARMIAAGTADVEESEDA

JurBglKC603 [2] = target: T1, JurBglKC603; experiment: pNPG hydrolysis with added glucose, relative activity; conditions: 3 M; 4 mM pNPG, 50 mM sodium citrate pH 6, 35 °C; glucose is also the reaction product
Excerpt: pNPG hydrolysis with added glucose, relative activity on JurBglKC603

JurBglKC603 [3] = target: T1, JurBglKC603; experiment: glucose release by GOPOD assay, Lineweaver-Burk; conditions: 50 mM sodium citrate pH 6, 40 °C, 1 h; substrate 0.2-1 mM
Excerpt: glucose release by GOPOD assay, Lineweaver-Burk on JurBglKC603

O=[N+]([O-])c1ccc(O[C@@H]2O[C@H](CO)[C@@H](O)[C@H](O)[C@H]2O)cc1 [pNPG, para-nitrophenyl β-D-glucopyranoside] was tested, and the Km (JurBglKC603 [1]) was 440 µM.

Work on OC[C@H]1OC(O)[C@H](O)[C@@H](O)[C@@H]1O (stereo partly drawn) [glucose] yielded a Glucose tolerance (JurBglKC603 [2]) of 58%.

For OC[C@H]1O[C@@H](Oc2cc(O)cc(/C=C/c3ccc(O)cc3)c2)[C@H](O)[C@@H](O)[C@@H]1O [polydatin], the Km (JurBglKC603 [3]) was 4600 µM.
